Measurements reported in ChEMBL document CHEMBL3044853, “Anti-HIV-1 and cytotoxicity studies of piperidyl-thienyl chalcones and their 2-pyrazoline derivatives” (Med Chem Res, 2012).

Columns and labels:
Vero = test: Cytotoxicity against Chlorocebus aethiops (African green monkey) Vero cells after 5 days celltiter 96 aqueous assay; type: cell-based; conditions: Chlorocebus sabaeus, 120 h
[1] = system: Human immunodeficiency virus 1; test: Antiviral activity against 0.1 MOI of Human immunodeficiency virus 1 LAI infected human PBM cells after 2 to 3 hr by scintillation counting analysis in presence of [3H]thymidine-5'-triphosphate; type: functional, organism-based; conditions: PBMC
PBMC = test: Cytotoxicity against Homo sapiens (human) PBMCs after 5 days celltiter 96 aqueous assay; type: cell-based; conditions: 120 h
CCRF-CEM = test: Cytotoxicity against Homo sapiens (human) CEM cells after 5 days celltiter 96 aqueous assay; type: cell-based; conditions: 120 h

| SMILES | EC50 [1] | EC90 [1] | IC50 (Vero) | IC50 (PBMC) | IC50 (CCRF-CEM) |
| --- | --- | --- | --- | --- | --- |
| Brc1ccc(C2=NNC(c3ccc(N4CCCCC4)cc3)C2)s1 (configuration not stated) | 9 µM | 33.3 µM | 25.8 µM | 80 µM | 21.5 µM |
| Cc1ccsc1C1=NNC(c2ccc(N3CCCCC3)cc2)C1 (configuration not stated) | 5.1 µM | 15.5 µM | 11.4 µM | 11 µM | 2.3 µM |
| Cc1cc(C(=O)/C=C/c2ccc(N3CCCCC3)cc2)c(C)s1 | 11.6 µM | 23.6 µM | 42.3 µM | 38.2 µM | 16.6 µM |
| Cc1ccc(C2=NNC(c3ccc(N4CCCCC4)cc3)C2)s1 (configuration not stated) | 7.2 µM | 52.9 µM | 52 µM | 86.4 µM | 15.3 µM |
| O=C(/C=C/c1ccc(N2CCCCC2)cc1)c1sccc1Br | 5.8 µM | 27.8 µM | 18 µM | 39.3 µM | 12.5 µM |
| Cc1ccsc1C(=O)/C=C/c1ccc(N2CCCCC2)cc1 | 2.5 µM | 19.6 µM | 63.9 µM | 26.4 µM | 9.9 µM |
| Cc1csc(C2=NNC(c3ccc(N4CCCCC4)cc3)C2)c1 (configuration not stated) | 13 µM | 24.9 µM | 31.6 µM | 24.4 µM | 16.3 µM |
| Clc1ccc(C2=NNC(c3ccc(N4CCCCC4)cc3)C2)s1 (configuration not stated) | 75.3 µM | > 100 µM | > 100 µM | > 100 µM | > 100 µM |
| Brc1ccsc1C1=NNC(c2ccc(N3CCCCC3)cc2)C1 (configuration not stated) | 17.4 µM | 30.4 µM | 24.8 µM | 57 µM | 31.6 µM |
| c1csc(C2=NNC(c3ccc(N4CCCCC4)cc3)C2)c1 (configuration not stated) | 7.3 µM | 26.8 µM | 3.2 µM | 20.8 µM | 6.9 µM |
| Cc1cc(C2=NNC(c3ccc(N4CCCCC4)cc3)C2)c(C)s1 (configuration not stated) | 16.9 µM | 29.8 µM | 83.4 µM | 77.5 µM | 20.1 µM |
| O=C(/C=C/c1ccc(N2CCCCC2)cc1)c1cc(Cl)sc1Cl | 11.8 µM | 24.7 µM | 24.9 µM | 42.8 µM | 15 µM |
| O=C(/C=C/c1ccc(N2CCCCC2)cc1)c1ccsc1 | 56 µM | ≥ 100 µM | 34.4 µM | > 100 µM | 32.1 µM |
| O=C(/C=C/c1ccc(N2CCCCC2)cc1)c1ccc(Cl)s1 | 35.4 µM | ≥ 100 µM | 32.4 µM | > 100 µM | 41.5 µM |

Further lines, with some results ahead:

| EC50 [1] | EC90 [1] | SMILES | IC50 (Vero) | IC50 (PBMC) | IC50 (CCRF-CEM) |
| --- | --- | --- | --- | --- | --- |
| 2.4 µM | 13.1 µM | Clc1ccsc1C1=NNC(c2ccc(N3CCCCC3)cc2)C1 (configuration not stated) | 31.6 µM | 34.2 µM | 10.2 µM |
| 11.3 µM | ≥ 100 µM | c1cc(C2=NNC(c3ccc(N4CCCCC4)cc3)C2)cs1 (configuration not stated) | 29.5 µM | > 100 µM | 27 µM |
| 14.5 µM | 43.6 µM | Ic1ccc(C2=NNC(c3ccc(N4CCCCC4)cc3)C2)s1 (configuration not stated) | 15.9 µM | > 100 µM | 36.5 µM |
| 11.6 µM | ≥ 100 µM | O=C(/C=C/c1ccc(N2CCCCC2)cc1)c1ccc(I)s1 | 56.5 µM | > 100 µM | 22 µM |
| 46.5 µM | ≥ 100 µM | O=C(/C=C/c1ccc(N2CCCCC2)cc1)c1ccc(Br)s1 | 69.5 µM | > 100 µM | 52.8 µM |
| 17.9 µM | 30.9 µM | Cc1ccc(C(=O)/C=C/c2ccc(N3CCCCC3)cc2)s1 | 50.5 µM | 77.8 µM | 21.2 µM |
|  | 0.026 µM | Cc1cn([C@H]2C[C@H](N=[N+]=[N-])[C@@H](CO)O2)c(=O)[nH]c1=O [ZIDOVUDINE] |  | > 100 µM |  |
| 73.8 µM | ≥ 100 µM | O=C(/C=C/c1ccc(N2CCCCC2)cc1)c1cccs1 | 65.5 µM | > 100 µM | 11.6 µM |
| 32.5 µM | > 100 µM | Clc1cc(C2=NNC(c3ccc(N4CCCCC4)cc3)C2)c(Cl)s1 (configuration not stated) | 53.9 µM | 59 µM | 37.7 µM |
| 8.4 µM | 29 µM | O=C(/C=C/c1ccc(N2CCCCC2)cc1)c1sccc1Cl | 18.1 µM | 32.1 µM | 12.2 µM |
| 11.6 µM | 23.1 µM | Cc1csc(C(=O)/C=C/c2ccc(N3CCCCC3)cc2)c1 | 56.3 µM | 68.8 µM | 33.3 µM |
